Experimental data from US12077503B2, “Substituted cyclic amides and their use as herbicides” (FMC CORPORATION, priority 2015, dated 2024).
Where two headings read alike, the source gives them in different places.

How the values were obtained:
Format in all cases: in vivo
[1] = tested on: ryegrass, Italian (Italian ryegrass, Lolium multiflorum); assay: Test A preemergence; settings: Lolium multiflorum, pre-emergence, 240 h; for pest or weed control at 125 g/ha: 125 g ai/ha; for pest or weed control at 500 g/ha: 500 g ai/ha
In short: (§1)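 Greenhouse, ~10 d after spray; visual injury vs untreated controls, 0 = no effect, 100 = complete control. Preemergence: directed soil spray over planted seeds. Postemergence: plants 2–10 cm, 1–2 leaf stage. Loam/sand blend. Compound in non-phytotoxic solvent with surfactant.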

[2] = tested on: Kochia (Kochia scoparia); assay: Test A preemergence; settings: Bassia scoparia, pre-emergence, 240 h; for pest or weed control at 125 g/ha: 125 g ai/ha; for pest or weed control at 500 g/ha: 500 g ai/ha
In short: as §1

[3] = tested on: giant foxtail (Setaria faberii); assay: Test A preemergence; settings: Setaria faberi, pre-emergence, 240 h; for pest or weed control at 125 g/ha: 125 g ai/ha; for pest or weed control at 500 g/ha: 500 g ai/ha
In short: as §1

[4] = tested on: barnyardgrass (Echinochloa crus-galli); assay: Test A preemergence; settings: Echinochloa crus-galli, pre-emergence, 240 h; for pest or weed control at 125 g/ha: 125 g ai/ha, 0 to 100 scale where 0 is no effect and 100 is complete control; for pest or weed control at 500 g/ha: 500 g ai/ha
In short: as §1

[5] = tested on: ragweed (common ragweed, Ambrosia elatior); assay: Test A preemergence; settings: Ambrosia artemisiifolia, pre-emergence, 240 h; for pest or weed control at 125 g/ha: 125 g ai/ha; for pest or weed control at 500 g/ha: 500 g ai/ha
In short: as §1

[6] = tested on: pigweed (Amaranthus retroflexus); assay: Test A preemergence; settings: Amaranthus retroflexus, pre-emergence, 240 h; for pest or weed control at 125 g/ha: 125 g ai/ha; for pest or weed control at 500 g/ha: 500 g ai/ha
[7] = tested on: rice (Oryra sativa); assay: Test B flooded paddy test; settings: Oryza sativa, 250 g ai/ha, Flood, read-out: Rice plant response rating
In short: (§2)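 Flooding to 3 cm over soil accompanied treatment, which consisted of adding compound to the standing water around 2-leaf plants; depth was then maintained. Visual assessment versus controls followed at 13 to 15 d (scale 0–100, 0 meaning no effect).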

[8] = tested on: ducksalad (Heteranthera limosa); assay: Test B flooded paddy test; settings: Heteranthera limosa, 250 g ai/ha, Flood, read-out: Ducksalad plant response rating
In short: as §2

[9] = tested on: barnyardgrass (Echinochloa crus-galli); assay: Test B flooded paddy test; settings: Echinochloa crus-galli, 250 g ai/ha, Flood, read-out: Barnyardgrass plant response rating
In short: as §2

[10] = tested on: sedge, umbrella (small-flower umbrella sedge, Cyperus difformis); assay: Test B flooded paddy test; settings: Cyperus difformis, 250 g ai/ha, Flood, read-out: Sedge, Umbrella plant response rating
In short: as §2

[11] = tested on: ryegrass, Italian (Italian ryegrass, Lolium multiflorum); assay: Test A postemergence; settings: Lolium multiflorum, post-emergence, 240 h, postemergence; for pest or weed control at 125 g/ha: 125 g ai/ha
In short: as §1

[12] = tested on: ragweed (common ragweed, Ambrosia elatior); assay: Test A postemergence; settings: Ambrosia artemisiifolia, post-emergence, 240 h, postemergence; for pest or weed control at 125 g/ha: 125 g ai/ha
In short: as §1

[13] = tested on: blackgrass (Alopecurus myosuroides); assay: Test A postemergence; settings: Alopecurus myosuroides, post-emergence, 240 h, postemergence; for pest or weed control at 125 g/ha: 125 g ai/ha
In short: as §1

[14] = tested on: corn (Zea mays); assay: Test A postemergence; settings: Zea mays, post-emergence, 240 h, postemergence; for plant injury at 125 g/ha: 125 g ai/ha
In short: as §1

[15] = tested on: pigweed (Amaranthus retroflexus); assay: Test A postemergence; settings: Amaranthus retroflexus, post-emergence, 240 h, postemergence; for pest or weed control at 125 g/ha: 125 g ai/ha
In short: as §1

[16] = preemergence, 0 to 100 scale where 0 is no effect and 100 is complete control, read-out: Ryegrass, Italian plant response rating
[17] = preemergence, 0 to 100 scale where 0 is no effect and 100 is complete control, read-out: Kochia plant response rating
[18] = preemergence, 0 to 100 scale where 0 is no effect and 100 is complete control, read-out: Foxtail, Giant plant response rating
[19] = preemergence, 0 to 100 scale where 0 is no effect and 100 is complete control, read-out: Ragweed plant response rating
[20] = preemergence, 0 to 100 scale where 0 is no effect and 100 is complete control, read-out: Pigweed plant response rating
[21] = 0 to 100 scale where 0 is no effect and 100 is complete control
[22] = scale of 0 to 100 where 0 is no effect and 100 is complete control

SMILES: O=C1NC[C@H](c2csc(C(F)F)c2)[C@H]1C(=O)Nc1cccc(F)c1F [Compound 1119]
- pest or weed control at 125 g/ha ([1]; preemergence, 0 to 100 scale where 0 is no effect and 100 is complete control, approx. 10 d, read-out: Ryegrass, Italian plant response rating): 20%
- pest or weed control at 500 g/ha [1, 16]: 30%
- pest or weed control at 125 g/ha ([2]; preemergence, 0 to 100 scale where 0 is no effect and 100 is complete control, approx. 10 d, read-out: Kochia plant response rating): 70%
- pest or weed control at 500 g/ha [2, 17]: 80%
- pest or weed control at 125 g/ha ([3]; preemergence, 0 to 100 scale where 0 is no effect and 100 is complete control, approx. 10 d, read-out: Foxtail, Giant plant response rating): 50%
- pest or weed control at 500 g/ha [3, 18]: 80%
- pest or weed control at 125 g/ha ([4]; preemergence, approx. 10 d, read-out: Barnyardgrass plant response rating): 90%
- pest or weed control at 500 g/ha ([4]; preemergence, visual injury rating about 10 d after treatment, 0 to 100 scale (0 no effect, 100 complete control), read-out: Barnyardgrass plant response rating): 90%
- pest or weed control at 125 g/ha ([5]; preemergence, 0 to 100 scale where 0 is no effect and 100 is complete control, approx. 10 d, read-out: Ragweed plant response rating): 70%
- pest or weed control at 500 g/ha [5, 19]: 70%
- pest or weed control at 125 g/ha ([6]; preemergence, 0 to 100 scale where 0 is no effect and 100 is complete control, approx. 10 d, read-out: Pigweed plant response rating): 0%
- pest or weed control at 500 g/ha [6, 20]: 30%
- pest or weed control at 250 g/ha [7, 21]: 20%
- pest or weed control at 250 g/ha [8, 21]: 100%
- pest or weed control at 250 g/ha [9, 21]: 60%
- pest or weed control at 250 g/ha [10, 21]: 50%
- pest or weed control at 125 g/ha ([11]; visual injury on 0 to 100 scale (0 no effect, 100 complete control), approx. 10 d, read-out: Ryegrass, Italian plant response rating): 30%
- pest or weed control at 500 g/ha ([11]; 500 g ai/ha, 0 to 100 scale, 0 is no effect, 100 is complete control, read-out: Ryegrass, Italian plant response rating): 30%
- pest or weed control at 125 g/ha ([12]; visual injury on 0 to 100 scale (0 no effect, 100 complete control), approx. 10 d, read-out: Ragweed plant response rating): 20%
- pest or weed control at 500 g/ha ([12]; 500 g ai/ha, 0 to 100 scale, 0 is no effect, 100 is complete control, read-out: Ragweed plant response rating): 60%
- pest or weed control at 125 g/ha ([13]; visual injury on 0 to 100 scale (0 no effect, 100 complete control), approx. 10 d, read-out: Blackgrass plant response rating): 50%
- pest or weed control at 500 g/ha ([13]; 500 g ai/ha, 0 to 100 scale, 0 is no effect, 100 is complete control, read-out: Blackgrass plant response rating): 70%
- plant injury at 125 g/ha ([14]; visual injury on 0 to 100 scale (0 no effect, 100 complete control), approx. 10 d, read-out: Corn plant response rating): 20%
- plant injury at 500 g/ha ([14]; 500 g ai/ha, 0 to 100 scale, 0 is no effect, 100 is complete control, read-out: Corn plant response rating): 30%
- pest or weed control at 125 g/ha ([15]; visual injury on 0 to 100 scale (0 no effect, 100 complete control), approx. 10 d, read-out: Pigweed plant response rating): 0%
- pest or weed control at 500 g/ha ([15]; 500 g ai/ha, 0 to 100 scale, 0 is no effect, 100 is complete control, read-out: Pigweed plant response rating): 20%

SMILES: CC(C)(C)c1ccc([C@H]2CNC(=O)[C@@H]2C(=O)Nc2cccc(F)c2F)cc1 [Compound 847]
- pest or weed control at 125 g/ha [1, 16]: 0%
- pest or weed control at 500 g/ha ([1]; Preemergence, visual injury vs untreated controls after approximately 10 d, read-out: Ryegrass, Italian plant response rating (0 to 100 scale where 0 is no effect and 100 is complete control)): 0%
- pest or weed control at 125 g/ha [2, 17]: 0%
- pest or weed control at 500 g/ha ([2]; Preemergence, visual injury vs untreated controls after approximately 10 d, read-out: Kochia plant response rating (0 to 100 scale where 0 is no effect and 100 is complete control)): 0%
- pest or weed control at 125 g/ha [3, 18]: 0%
- pest or weed control at 500 g/ha ([3]; Preemergence, visual injury vs untreated controls after approximately 10 d, read-out: Foxtail, Giant plant response rating (0 to 100 scale where 0 is no effect and 100 is complete control)): 50%
- pest or weed control at 125 g/ha ([4]; preemergence, read-out: Barnyardgrass plant response rating): 0%
- pest or weed control at 500 g/ha ([4]; Preemergence, visual injury vs untreated controls after approximately 10 d, read-out: Barnyardgrass plant response rating (0 to 100 scale where 0 is no effect and 100 is complete control)): 60%
- pest or weed control at 125 g/ha [5, 19]: 0%
- pest or weed control at 500 g/ha ([5]; Preemergence, visual injury vs untreated controls after approximately 10 d, read-out: Ragweed plant response rating (0 to 100 scale where 0 is no effect and 100 is complete control)): 0%
- pest or weed control at 125 g/ha [6, 20]: 0%
- pest or weed control at 500 g/ha ([6]; Preemergence, visual injury vs untreated controls after approximately 10 d, read-out: Pigweed plant response rating (0 to 100 scale where 0 is no effect and 100 is complete control)): 0%
- pest or weed control at 250 g/ha [7, 22]: 0%
- pest or weed control at 250 g/ha [8, 22]: 90%
- pest or weed control at 250 g/ha [9, 22]: 0%
- pest or weed control at 250 g/ha [10, 22]: 0%
- pest or weed control at 125 g/ha ([11]; visual injury rating after approximately 10 d, read-out: Ryegrass, Italian plant response rating (0 to 100 scale, 0 no effect, 100 complete control)): 0%
- pest or weed control at 125 g/ha ([12]; visual injury rating after approximately 10 d, read-out: Ragweed plant response rating (0 to 100 scale, 0 no effect, 100 complete control)): 0%
- pest or weed control at 125 g/ha ([13]; visual injury rating after approximately 10 d, read-out: Blackgrass plant response rating (0 to 100 scale, 0 no effect, 100 complete control)): 0%
- plant injury at 125 g/ha ([14]; visual injury rating after approximately 10 d, read-out: Corn plant response rating (0 to 100 scale, 0 no effect, 100 complete control)): 0%
- pest or weed control at 125 g/ha ([15]; visual injury rating after approximately 10 d, read-out: Pigweed plant response rating (0 to 100 scale, 0 no effect, 100 complete control)): 0%
